For one compound, inhibition, IC50 and Kinase activity results are on record in patent publication US9301961B2, “Autoimmune and inflammatory disorder therapy” (Katholieke Universiteit Leuven, K.U. Leuven R&D, priority 2011, dated 2016).

In one assay the target is T1, RIOK2 (Homo sapiens, UniProt Q9BVS4).
T1 construct: made in house; host or cells: E. coli BL21-derived host (T7 phage) or HEK-293
Briefly: Kinase-tagged phage competition binding assay (qPCR), 382-kinase library.

A further assay addresses T2, PIK3CB (Homo sapiens, UniProt P42338).
T2 construct: made in house; host or cells: E. coli BL21-derived host (T7 phage) or HEK-293
The assay is described as above.

A further assay addresses T3, TESK1 (Homo sapiens, UniProt Q15569).
T3 construct: made in house; host or cells: E. coli BL21-derived host (T7 phage) or HEK-293
Described as above.

The target of assay [1] is T4, PI3KCB (PI3K p110β/p85α (h)) (Homo sapiens, UniProt P42338).
T4 construct: purchased Millipore
T4 sequence (P42338 whole entry): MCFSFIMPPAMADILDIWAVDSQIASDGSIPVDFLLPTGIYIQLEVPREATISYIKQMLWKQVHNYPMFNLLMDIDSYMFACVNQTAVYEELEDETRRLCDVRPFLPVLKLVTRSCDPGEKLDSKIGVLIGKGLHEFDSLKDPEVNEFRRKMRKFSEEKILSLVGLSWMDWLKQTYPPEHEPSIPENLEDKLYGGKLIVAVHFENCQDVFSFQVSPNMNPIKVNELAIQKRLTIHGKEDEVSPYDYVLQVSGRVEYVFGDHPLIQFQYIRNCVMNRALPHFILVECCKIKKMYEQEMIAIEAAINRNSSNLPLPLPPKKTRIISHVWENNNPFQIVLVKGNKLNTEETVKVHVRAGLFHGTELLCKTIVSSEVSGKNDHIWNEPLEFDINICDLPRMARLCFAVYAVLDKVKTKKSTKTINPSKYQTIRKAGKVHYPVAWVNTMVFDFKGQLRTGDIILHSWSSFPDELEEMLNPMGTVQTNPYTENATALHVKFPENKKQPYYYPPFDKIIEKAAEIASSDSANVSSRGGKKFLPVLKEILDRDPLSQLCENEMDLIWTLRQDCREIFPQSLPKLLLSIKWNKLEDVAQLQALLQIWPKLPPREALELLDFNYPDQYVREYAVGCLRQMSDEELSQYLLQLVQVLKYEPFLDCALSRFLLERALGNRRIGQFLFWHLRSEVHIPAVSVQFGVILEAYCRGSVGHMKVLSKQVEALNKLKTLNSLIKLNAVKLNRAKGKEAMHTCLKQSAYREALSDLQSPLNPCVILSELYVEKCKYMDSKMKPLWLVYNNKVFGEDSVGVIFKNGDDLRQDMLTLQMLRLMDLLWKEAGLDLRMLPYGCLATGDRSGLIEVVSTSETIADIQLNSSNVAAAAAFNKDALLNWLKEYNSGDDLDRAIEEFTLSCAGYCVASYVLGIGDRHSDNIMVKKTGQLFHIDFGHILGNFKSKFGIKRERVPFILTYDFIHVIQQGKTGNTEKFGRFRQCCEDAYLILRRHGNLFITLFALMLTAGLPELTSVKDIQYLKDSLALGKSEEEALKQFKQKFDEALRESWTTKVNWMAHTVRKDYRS
T4 sequence (P27986 whole entry partner): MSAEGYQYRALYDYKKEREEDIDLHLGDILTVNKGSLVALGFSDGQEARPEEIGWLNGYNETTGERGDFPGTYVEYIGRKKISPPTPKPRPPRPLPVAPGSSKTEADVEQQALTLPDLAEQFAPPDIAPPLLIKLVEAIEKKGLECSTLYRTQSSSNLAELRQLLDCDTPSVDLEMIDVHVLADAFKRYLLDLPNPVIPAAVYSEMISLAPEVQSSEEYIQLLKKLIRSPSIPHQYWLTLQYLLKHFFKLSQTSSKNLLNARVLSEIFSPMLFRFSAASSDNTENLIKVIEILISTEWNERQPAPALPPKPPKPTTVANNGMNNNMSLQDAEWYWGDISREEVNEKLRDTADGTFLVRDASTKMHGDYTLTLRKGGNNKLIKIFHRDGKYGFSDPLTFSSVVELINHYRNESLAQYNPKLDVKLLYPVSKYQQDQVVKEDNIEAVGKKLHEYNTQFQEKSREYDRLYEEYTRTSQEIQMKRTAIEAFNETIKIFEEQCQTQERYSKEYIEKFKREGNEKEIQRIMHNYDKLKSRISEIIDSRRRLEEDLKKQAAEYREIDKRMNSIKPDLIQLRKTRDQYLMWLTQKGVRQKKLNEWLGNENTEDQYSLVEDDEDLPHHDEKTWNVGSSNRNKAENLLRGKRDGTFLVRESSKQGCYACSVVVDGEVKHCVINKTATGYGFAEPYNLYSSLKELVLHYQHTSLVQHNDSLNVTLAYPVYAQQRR
In words: Commercial kinase activity assay (Millipore, HTRF). Type of assay: biochemical. The following applies: 10 μM test compound. As for the experimental part: LOK (h) was incubated with 8 mM MOPS pH 7.0, 0.2 mM EDTA, 250 μM […], 10 mM MgAcetate and [γ-^33P-ATP] (specific activity approx. 500 cpm/pmol, concentration as required). The reaction was initiated by the addition of the MgATP mix. After incubation for 40 minutes at room temperature, the reaction was stopped by the addition of 3% phosphoric acid solution. 10 μL of the reaction was then spotted onto a P30 filtermat and washed three times for 5 minutes in 75 mM phosphoric acid and once in methanol prior to drying and scintillation counting. PI3K p110β/p85α (h) PI3K (p110β/p85α) (h) was incubated in assay buffer containing 10 μM phosphatidylinositol-4,5-bisphosphate and MgATP (concentration as required). The reaction was initiated by the addition of the MgATP mix. After incubation for 30 minutes at room temperature, the reaction was stopped by the addition of stop solution containing EDTA and biotinylated phosphatidylinositol-3,4,5-trisphosphate. Finally, detection buffer was added, which contains europium-labelled anti-GST monoclonal antibody, GST-tagged GRP1 PH domain and streptavidinallophycocyanin. The plate was then read in time-resolved fluorescence mode and the homogenous time-resolved fluorescence (HTRF®) signal determined according to the formula HTRF=10000×(Em665nm/Em620 nm). […]
A general note: In TR-FRET formats the signal depends on donor and acceptor labels being close together.

For another assay, the target named is T5, LOK (h) (Homo sapiens, UniProt O94804).
T5 construct: purchased Millipore
T5 sequence (O94804 whole entry): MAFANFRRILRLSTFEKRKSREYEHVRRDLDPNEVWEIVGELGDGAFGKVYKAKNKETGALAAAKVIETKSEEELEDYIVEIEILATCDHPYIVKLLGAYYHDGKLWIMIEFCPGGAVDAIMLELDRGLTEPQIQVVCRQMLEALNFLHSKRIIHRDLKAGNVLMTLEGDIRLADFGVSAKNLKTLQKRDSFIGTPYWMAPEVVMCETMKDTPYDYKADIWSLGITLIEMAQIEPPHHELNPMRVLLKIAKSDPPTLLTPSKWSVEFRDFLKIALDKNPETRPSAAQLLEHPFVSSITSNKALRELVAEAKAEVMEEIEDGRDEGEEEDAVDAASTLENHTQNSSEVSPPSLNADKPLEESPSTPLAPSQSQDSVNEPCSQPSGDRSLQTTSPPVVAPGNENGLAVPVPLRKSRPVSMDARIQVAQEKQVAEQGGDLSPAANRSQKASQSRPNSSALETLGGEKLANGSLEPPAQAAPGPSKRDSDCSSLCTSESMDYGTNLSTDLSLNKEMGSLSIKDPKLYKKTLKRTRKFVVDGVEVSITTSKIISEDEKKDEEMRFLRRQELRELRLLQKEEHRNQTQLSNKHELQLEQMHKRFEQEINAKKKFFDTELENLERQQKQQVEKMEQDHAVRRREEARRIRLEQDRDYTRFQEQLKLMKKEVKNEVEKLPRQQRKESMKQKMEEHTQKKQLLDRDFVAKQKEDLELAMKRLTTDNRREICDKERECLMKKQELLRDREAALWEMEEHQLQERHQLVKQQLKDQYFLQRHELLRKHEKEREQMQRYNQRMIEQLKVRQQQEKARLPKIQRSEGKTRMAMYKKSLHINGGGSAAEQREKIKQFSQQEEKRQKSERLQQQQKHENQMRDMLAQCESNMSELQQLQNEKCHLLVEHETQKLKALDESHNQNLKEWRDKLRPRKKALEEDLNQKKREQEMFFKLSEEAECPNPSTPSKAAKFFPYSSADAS
Briefly: Commercial kinase activity assay (Millipore, 33P-ATP filter). Type of assay: biochemical. The following applies: 10 μM test compound. As for the experimental part:
LOK (h) was incubated with 8 mM MOPS pH 7.0, 0.2 mM EDTA, 250 μM […], 10 mM MgAcetate and [γ-^33P-ATP] (specific activity approx. 500 cpm/pmol, concentration as required). The reaction was initiated by the addition of the MgATP mix. After incubation for 40 minutes at room temperature, the reaction was stopped by the addition of 3% phosphoric acid solution. 10 μL of the reaction was then spotted onto a P30 filtermat and washed three times for 5 minutes in 75 mM phosphoric acid and once in methanol prior to drying and scintillation counting. PI3K p110β/p85α (h) PI3K (p110β/p85α) (h) was incubated in assay buffer containing 10 μM phosphatidylinositol-4,5-bisphosphate and MgATP (concentration as required). The reaction was initiated by the addition of the MgATP mix. After incubation for 30 minutes at room temperature, the reaction was stopped by the addition of stop solution containing EDTA and biotinylated phosphatidylinositol-3,4,5-trisphosphate. Finally, detection buffer was added, which contains europium-labelled anti-GST monoclonal antibody, GST-tagged GRP1 PH domain and streptavidinallophycocyanin. The plate was then read in time-resolved fluorescence mode and the homogenous time-resolved fluorescence (HTRF®) signal determined according to the formula HTRF=10000×(Em665nm/Em620 nm). YSK4 (h) YSK4 (h) was incubated with 8 mM MOPS pH 7.0, 0.2 mM EDTA, 250 […], 10 mM MgAcetate and [γ-^33P-ATP] (specific activity approx. 500 cpm/pmol, concentration as required). The reaction was initiated by the addition of the MgATP mix. After incubation for 40 minutes at room temperature, the reaction was stopped by the addition of 3% phosphoric acid solution. 10 μL of the reaction was then spotted onto a P30 filtermat and washed three times for 5 minutes in 75 mM phosphoric acid and once in methanol prior to drying and scintillation counting. PI4KA (PI4K alpha) The 2× PI4KA (PI4K alpha)/PI Lipid Kinase Substrate mixture was prepared in 20 mM Tris, pH 7.5, 0.4% Triton X-100, 5 mM MgCl2, 0.5 mM EGTA. The final 10 μL Kinase Reaction consisted of 75-300 ng PI4KA (PI4K alpha) and 100 μM PI Lipid Kinase Substrate in 7.5 mM HEPES, 10 mM Tris, pH 7.5, 0.2% Triton X-100, 2.5 mM MgCl2, 0.25 mM EGTA. After the 1 hour Kinase Reaction incubation, 5 μL of Detection Mix consisting of a europium labeled anti-ADP antibody, an Alexa Fluor® 647 labeled ADP tracer, and EDTA (to stop the kinase reaction) was added to the assay well. ADP formed by the kinase reaction (in the absence of an inhibitor) displaced the Alexa Fluor® 647 labeled ADP tracer from the antibody, resulting in a decrease in the TR-FRET signal. […] PI4KB (PI4K beta) The 2× PI4KB (PI4K beta)/PI Lipid Kinase Substrate mixture was prepared in 50 mM HEPES pH 7.5, 0.1% CHAPS, 1 mM EGTA, 4 mM MgCl2. […]

A further assay addresses T6, PAK1 (Homo sapiens, UniProt Q13153).
T6 construct: made in house; host or cells: E. coli BL21-derived host (T7 phage) or HEK-293
In words: Commercial kinase activity assay (Invitrogen, fluorescence). Type of assay: biochemical. The following applies: 10 μM test compound.

For assay [2], the system named is murine splenocytes stimulated with α-CD3 antibody. Briefly: Cytokine secretion after α-CD3 stimulation. The following applies: Mus musculus, Splenocyte, 24 h. Type of assay: cell-based, Balb/C mice. As for the experimental part: The ability of test compounds to inhibit cytokine release by murine splenocytes after stimulation with α-CD3 antibody was also investigated.
2×10^6 splenocytes from Balb/C female mice, 8-10 weeks old in 220 μl of complete medium were stimulated with 0.1 μg of hamster anti mouse CD3ε antibody in presence of various concentrations of test compounds. After 24 h of incubation at 37° C., 5% CO2, supernatant were collected and cytokine titers were determined by flow cytometry according manufacturer protocols (MCB United States, Arlington, Mass., USA).
The results are shown in FIG. 1 compared to a DMSO negative control (▾). […].

[3] abbreviates: 10 μM compound, read-out: % Inhibition of substrate binding.
Where [4] appears, read: stated for the 8 kinases of Table 1.

Like-named read-outs stand apart in the source and are kept apart here.

What is called inhibition is how much of the control response was suppressed. In general, IC50 refers to the concentration at which inhibition is half-maximal.

T2 sequence (P42338 whole entry): as the sequence (P42338 whole entry) above
T1 sequence (Q9BVS4 whole entry): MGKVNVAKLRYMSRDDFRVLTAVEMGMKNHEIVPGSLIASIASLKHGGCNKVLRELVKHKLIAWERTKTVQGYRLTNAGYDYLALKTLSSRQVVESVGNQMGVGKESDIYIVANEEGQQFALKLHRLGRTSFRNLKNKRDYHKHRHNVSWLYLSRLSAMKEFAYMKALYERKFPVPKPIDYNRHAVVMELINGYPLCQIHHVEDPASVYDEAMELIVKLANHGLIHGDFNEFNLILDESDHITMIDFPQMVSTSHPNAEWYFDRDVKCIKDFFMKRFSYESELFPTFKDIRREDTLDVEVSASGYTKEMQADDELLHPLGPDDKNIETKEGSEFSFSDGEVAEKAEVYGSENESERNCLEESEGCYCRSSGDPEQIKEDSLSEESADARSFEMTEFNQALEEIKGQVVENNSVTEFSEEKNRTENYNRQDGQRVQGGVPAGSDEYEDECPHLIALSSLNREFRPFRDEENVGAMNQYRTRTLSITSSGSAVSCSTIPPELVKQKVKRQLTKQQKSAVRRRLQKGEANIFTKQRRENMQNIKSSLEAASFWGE
T3 sequence (Q15569 whole entry): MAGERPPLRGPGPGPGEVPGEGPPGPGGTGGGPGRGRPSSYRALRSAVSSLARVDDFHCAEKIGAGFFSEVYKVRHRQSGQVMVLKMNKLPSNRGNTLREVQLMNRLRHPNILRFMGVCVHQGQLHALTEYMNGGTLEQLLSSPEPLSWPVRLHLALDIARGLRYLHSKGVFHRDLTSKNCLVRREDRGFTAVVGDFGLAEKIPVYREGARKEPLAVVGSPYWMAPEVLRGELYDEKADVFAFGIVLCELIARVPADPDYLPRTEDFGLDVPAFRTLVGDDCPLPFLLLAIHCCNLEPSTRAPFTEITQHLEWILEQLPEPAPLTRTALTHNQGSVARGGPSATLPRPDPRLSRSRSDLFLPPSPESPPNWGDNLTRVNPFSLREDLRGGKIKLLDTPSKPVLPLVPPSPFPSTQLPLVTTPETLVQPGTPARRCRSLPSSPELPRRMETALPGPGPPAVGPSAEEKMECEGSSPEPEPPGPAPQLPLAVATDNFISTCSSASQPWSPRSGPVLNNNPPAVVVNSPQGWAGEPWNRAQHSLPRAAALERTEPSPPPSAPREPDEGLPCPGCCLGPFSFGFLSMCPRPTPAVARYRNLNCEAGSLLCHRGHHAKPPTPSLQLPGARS
T6 sequence (Q13153 whole entry): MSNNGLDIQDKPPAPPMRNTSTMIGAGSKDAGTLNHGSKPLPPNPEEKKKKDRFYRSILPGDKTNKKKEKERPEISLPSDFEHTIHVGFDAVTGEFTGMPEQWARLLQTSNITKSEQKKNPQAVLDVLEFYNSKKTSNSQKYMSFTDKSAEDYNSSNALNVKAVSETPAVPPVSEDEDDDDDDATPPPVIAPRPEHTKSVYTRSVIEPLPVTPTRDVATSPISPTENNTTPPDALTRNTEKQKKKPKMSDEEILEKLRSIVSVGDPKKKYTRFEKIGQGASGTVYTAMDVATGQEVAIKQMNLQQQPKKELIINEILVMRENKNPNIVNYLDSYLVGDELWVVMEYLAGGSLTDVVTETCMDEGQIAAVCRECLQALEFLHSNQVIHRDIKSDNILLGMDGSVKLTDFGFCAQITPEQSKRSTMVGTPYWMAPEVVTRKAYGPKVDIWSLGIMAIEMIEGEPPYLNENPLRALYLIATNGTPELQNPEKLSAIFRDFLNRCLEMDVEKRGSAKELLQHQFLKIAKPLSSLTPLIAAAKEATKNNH

Turning to `Nc1nc(N2CCN(C(=O)COc3ccc(Cl)cc3)CC2)c2nc(-c3cccnc3)sc2n1` [formula (1), 5-amino-7-[4-(4-chlorophenoxyacetyl)piperazin-1-yl]-2-(pyridin-3-yl)thiazolo[5,4-d]pyrimidine], the inhibition at 10 µM on RIOK2 (setting [3]) was determined as 94%; on PIK3CB (setting [3]), 56%; on TESK1 (setting [3]), 51%. Moreover, the IC50 on RIOK2 (setting [4]) is less than 10000 nM; on PIK3CB (setting [4]), less than 10000 nM; at TESK1 (setting [4]), less than 10000 nM; in assay [2] (read-out: IC50 for inhibition of IFNγ release), 204 nM; in assay [2] (read-out: IC50 for inhibition of IL2 release) it was 76 nM. Besides, the Kinase activity was 100 percentage of control in assay [1], 117 percentage of control at LOK (h) and 115 percentage of control at PAK1.
